Common to all, as to type: functional, cell-based
The subject of one assay is HeLa. The assay is described as follows: Growth inhibition of human HeLa cells incubated for 48 hrs by MTT reagent based ELISA reader analysis. (In general: Formazan colour is commonly taken as a measure of viable cells.)
For another assay, the system named is HCT-116. As to the kind of experiment: Growth inhibition of human HCT-116 cells incubated for 48 hrs by MTT reagent based ELISA reader analysis. Particulars: HCT-116, 48 h.
Another assay deals with HepG2. The assay is described as follows: Growth inhibition of human HepG2 cells incubated for 48 hrs by MTT reagent based ELISA reader analysis. Particulars: HepG2, 48 h.
A further assay deals with A549. The assay is described as follows: Growth inhibition of human A549 cells incubated for 48 hrs by MTT reagent based ELISA reader analysis. Particulars: A549, 48 h.
For a further assay, the system named is MCF7. As to the kind of experiment: Growth inhibition of human MCF7 cells incubated for 48 hrs by MTT reagent based ELISA reader analysis. Particulars: MCF7, 48 h.

For 33 molecules, IC50 results are on record in ChEMBL document CHEMBL5376003, “Structure-Activity Relationship of FL118 Platform Position 7 Versus Position 9-Derived Compounds and Their Mechanism of Action and Antitumor Activity” (J Med Chem, 2023).

Structures are written as SMILES. Bounds are passed on as bounds.

As to `CCCCc1ccc(-c2c3c(nc4cc5c(cc24)OCO5)-c2cc4c(c(=O)n2C3)COC(=O)[C@]4(O)CC)cc1`, the IC50 in the assay on HeLa was 115 nM; with HCT-116 it was 513 nM; with HepG2 it was over 1000 nM; with A549 it was 54.9 nM; in the assay on MCF7, 60.5 nM.
The corresponding values for `CC[C@@]1(O)C(=O)OCc2c1cc1n(c2=O)Cc2cc3c(-c4ccc(OC)cc4)c4c(cc3nc2-1)OCO4` are over 1000 nM, 162 nM, 527 nM, 163 nM and 161 nM.
For `CC[C@@]1(O)C(=O)OCc2c1cc1n(c2=O)Cc2c-1nc1cc3c(cc1c2-c1ccc(C(C)C)cc1)OCO3`, the IC50 with HeLa turned out to be 61.4 nM; in the assay with HCT-116, 400 nM; with HepG2, 825 nM; in the assay with A549 it was 52 nM; in the assay with MCF7 it was 122 nM.
For `CC[C@@]1(O)C(=O)OCc2c1cc1n(c2=O)Cc2c-1nc1cc3c(cc1c2-c1ccc(C)c(C)c1)OCO3`, the IC50 with HeLa came out at 364 nM; in the assay on HCT-116, 22.3 nM; with HepG2, 64 nM; in the assay on A549 it was 22.1 nM; in the assay with MCF7, 45.3 nM.
For `CCOc1ccc(-c2c3c(cc4nc5c(cc24)Cn2c-5cc4c(c2=O)COC(=O)[C@]4(O)CC)OCO3)cc1`, the IC50 in the assay on HeLa is over 1000 nM; in the assay on HCT-116, 176 nM; in the assay on HepG2 it was over 1000 nM; in the assay on A549, 296 nM; in the assay with MCF7 it was over 1000 nM.
`CCCc1ccc(-c2c3c(cc4nc5c(cc24)Cn2c-5cc4c(c2=O)COC(=O)[C@]4(O)CC)OCO3)cc1`: the IC50 in the assay with HeLa was over 1000 nM; in the assay on HCT-116, 951 nM; in the assay with HepG2 it was over 1000 nM; with A549 it was 423 nM; in the assay with MCF7 it was over 1000 nM.
On to `CC[C@@]1(O)C(=O)OCc2c1cc1n(c2=O)Cc2c-1nc1cc3c(cc1c2-c1ccc(C(C)(C)C)cc1)OCO3`, for which the IC50 with HeLa is over 1000 nM; with HCT-116, 83.2 nM; in the assay with HepG2 it was 140 nM; in the assay on A549, 64 nM; in the assay with MCF7, 160 nM.
Consider `CC[C@@]1(O)C(=O)OCc2c1cc1n(c2=O)Cc2c-1nc1cc3c(cc1c2-c1ccc(SC)cc1)OCO3`, for which the IC50 in the assay on HeLa came out at 58.7 nM; in the assay on HCT-116, 61.8 nM; in the assay with HepG2, 51.9 nM; in the assay on A549, 27.3 nM; with MCF7 it was 53.4 nM.
The corresponding values for `CCCCOc1ccc(-c2c3c(nc4cc5c(cc24)OCO5)-c2cc4c(c(=O)n2C3)COC(=O)[C@]4(O)CC)cc1` are over 1000 nM, 235 nM, over 1000 nM, over 1000 nM and over 1000 nM.
In the case of `CC[C@@]1(O)C(=O)OCc2c1cc1n(c2=O)Cc2cc3c(-c4ccc5c(c4)OCO5)c4c(cc3nc2-1)OCO4`, the IC50 amounted to 32.5 nM in the assay on HeLa; 59.2 nM in the assay with HCT-116; 350 nM in the assay with HepG2; 111 nM in the assay on A549; 32.6 nM in the assay with MCF7.
`CCCc1ccc(-c2c3c(nc4cc5c(cc24)OCO5)-c2cc4c(c(=O)n2C3)COC(=O)[C@]4(O)CC)cc1`: the IC50 with HeLa was 59.4 nM; in the assay with HCT-116, 118 nM; in the assay on HepG2, 827 nM; with A549 it was 51 nM; in the assay on MCF7 it was 64 nM.
Taken in the same sequence, the figures for `CC[C@@]1(O)C(=O)OCc2c1cc1n(c2=O)Cc2c-1nc1cc3c(cc1c2-c1cccc(C)c1)OCO3` were 144 nM, 21.8 nM, 134 nM, 115 nM and 38.6 nM.
For `CC[C@@]1(O)C(=O)OCc2c1cc1n(c2=O)Cc2c-1nc1cc3c(cc1c2-c1cccc(SC)c1)OCO3`, the IC50 was 125 nM in the assay on HeLa; 46.1 nM with HCT-116; 78.6 nM in the assay on HepG2; 132 nM in the assay on A549; 34.6 nM with MCF7.
With `CCCCOc1ccc(-c2c3c(cc4nc5c(cc24)Cn2c-5cc4c(c2=O)COC(=O)[C@]4(O)CC)OCO3)cc1`, the IC50 in the assay on HeLa stood at 593 nM; with HCT-116, 782 nM; in the assay on HepG2 it was 569 nM; with A549, 616 nM; in the assay on MCF7, 344 nM.
`CC[C@@]1(O)C(=O)OCc2c1cc1n(c2=O)Cc2cc3c(-c4ccc(SC)cc4)c4c(cc3nc2-1)OCO4`: the IC50 in the assay on HeLa came out at 161 nM; in the assay on HCT-116, 582 nM; in the assay on HepG2, 303 nM; in the assay on A549, 220 nM; with MCF7 it was 158 nM.
`CC[C@@]1(O)C(=O)OCc2c1cc1n(c2=O)Cc2cc3c(-c4ccc(C(C)(C)C)cc4)c4c(cc3nc2-1)OCO4`: the IC50 in the assay with HeLa was 674 nM; in the assay with HCT-116, over 1000 nM; in the assay on HepG2 it was over 1000 nM; in the assay with A549, 910 nM; in the assay on MCF7, over 1000 nM.
On to `CCOc1ccc(-c2c3c(nc4cc5c(cc24)OCO5)-c2cc4c(c(=O)n2C3)COC(=O)[C@]4(O)CC)cc1`, for which the IC50 is 63.2 nM in the assay with HeLa; 226 nM with HCT-116; over 1000 nM in the assay with HepG2; 61.2 nM with A549; 64 nM in the assay on MCF7.
For the molecule `CCc1ccc(-c2c3c(cc4nc5c(cc24)Cn2c-5cc4c(c2=O)COC(=O)[C@]4(O)CC)OCO3)cc1`, the IC50 was over 1000 nM in the assay with HeLa; 697 nM in the assay on HCT-116; over 1000 nM with HepG2; 265 nM in the assay on A549; over 1000 nM in the assay with MCF7.
As to `CCCCc1ccc(-c2c3c(cc4nc5c(cc24)Cn2c-5cc4c(c2=O)COC(=O)[C@]4(O)CC)OCO3)cc1`, the IC50 was over 1000 nM in the assay on HeLa; 759 nM in the assay with HCT-116; over 1000 nM with HepG2; 541 nM with A549; over 1000 nM in the assay with MCF7.
For the molecule `CC[C@@]1(O)C(=O)OCc2c1cc1n(c2=O)Cc2cc3c(-c4ccc(C)c(C)c4)c4c(cc3nc2-1)OCO4`, the IC50 in the assay with HeLa is over 1000 nM; with HCT-116, 774 nM; in the assay with HepG2, over 1000 nM; with A549, 259 nM; in the assay on MCF7, over 1000 nM.
With `CC[C@@]1(O)C(=O)OCc2c1cc1n(c2=O)Cc2c-1nc1cc3c(cc1c2-c1cc(C)cc(C)c1)OCO3`, the IC50 in the assay with HeLa was determined as 33.6 nM; in the assay on HCT-116, 64 nM; with HepG2, 45.4 nM; in the assay with A549 it was 36 nM; in the assay with MCF7, 86.8 nM.
Regarding `CCOc1cccc(-c2c3c(nc4cc5c(cc24)OCO5)-c2cc4c(c(=O)n2C3)COC(=O)[C@]4(O)CC)c1`, the IC50 came out at 52.2 nM in the assay on HeLa; 55.9 nM in the assay on HCT-116; 280 nM in the assay on HepG2; 29.4 nM with A549; 47.8 nM in the assay on MCF7.
Regarding `CCCOc1ccc(-c2c3c(cc4nc5c(cc24)Cn2c-5cc4c(c2=O)COC(=O)[C@]4(O)CC)OCO3)cc1`, the IC50 in the assay on HeLa is 532 nM; in the assay on HCT-116, 564 nM; in the assay with HepG2, over 1000 nM; with A549, 1000 nM; in the assay on MCF7 it was over 1000 nM.
For the molecule `CC[C@@]1(O)C(=O)OCc2c1cc1n(c2=O)Cc2cc3c(-c4cccc(OC)c4)c4c(cc3nc2-1)OCO4`, the IC50 is over 1000 nM with HeLa; over 1000 nM with HCT-116; over 1000 nM in the assay with HepG2; 990 nM in the assay with A549; over 1000 nM with MCF7.
As to `CC[C@@]1(O)C(=O)OCc2c1cc1n(c2=O)Cc2cc3c(-c4cccc(SC)c4)c4c(cc3nc2-1)OCO4`, the IC50 in the assay with HeLa is 32.3 nM; with HCT-116, 134 nM; in the assay with HepG2 it was 190 nM; in the assay with A549 it was 133 nM; with MCF7, 98.5 nM.
As to `CCSc1ccc(-c2c3c(nc4cc5c(cc24)OCO5)-c2cc4c(c(=O)n2C3)COC(=O)[C@]4(O)CC)cc1`, the IC50 with HeLa was found to be 95.8 nM; with HCT-116 it was 91.3 nM; in the assay with HepG2, 300 nM; with A549, 29.1 nM; in the assay on MCF7, 72.5 nM.
Turning to `CC[C@@]1(O)C(=O)OCc2c1cc1n(c2=O)Cc2c-1nc1cc3c(cc1c2-c1ccc2c(c1)OCO2)OCO3`, the IC50 in the assay with HeLa was 475 nM; with HCT-116, 36.7 nM; in the assay with HepG2 it was 61.1 nM; in the assay on A549 it was 84.6 nM; with MCF7 it was 35.5 nM.
For `CC[C@@]1(O)C(=O)OCc2c1cc1n(c2=O)Cc2cc3c(-c4cccc(OC(C)C)c4)c4c(cc3nc2-1)OCO4`, the IC50 turned out to be 161 nM with HeLa; 183 nM in the assay on HCT-116; 161 nM in the assay with HepG2; 149 nM in the assay with A549; 149 nM in the assay with MCF7.
Take `CCSc1ccc(-c2c3c(cc4nc5c(cc24)Cn2c-5cc4c(c2=O)COC(=O)[C@]4(O)CC)OCO3)cc1`: the IC50 in the assay with HeLa was over 1000 nM; with HCT-116 it was 620 nM; in the assay on HepG2, 401 nM; with A549, 211 nM; in the assay on MCF7 it was over 1000 nM.
For the molecule `CC[C@@]1(O)C(=O)OCc2c1cc1n(c2=O)Cc2cc3c(-c4ccc(C(C)C)cc4)c4c(cc3nc2-1)OCO4`, the IC50 in the assay on HeLa was over 1000 nM; with HCT-116, over 1000 nM; in the assay on HepG2, over 1000 nM; in the assay with A549 it was 765 nM; in the assay on MCF7, 800 nM.
`CC[C@@]1(O)C(=O)OCc2c1cc1n(c2=O)Cc2c-1nc1cc3c(cc1c2-c1ccc(OC(C)C)cc1)OCO3`: the IC50 in the assay with HeLa is 506 nM; in the assay on HCT-116 it was under 6.4 nM; with HepG2, 160 nM; in the assay on A549, 142 nM; in the assay on MCF7 it was 52.8 nM.
As for `CC[C@@]1(O)C(=O)OCc2c1cc1n(c2=O)Cc2c-1nc1cc3c(cc1c2-c1ccc([Si](C)(C)C)cc1)OCO3`, the IC50 in the assay on HeLa was over 1000 nM; in the assay on HCT-116, 56.3 nM; in the assay with HepG2, 74 nM; with A549, 321 nM; with MCF7, 863 nM.
Taken in the same sequence, the figures for `CC[C@@]1(O)C(=O)OCc2c1cc1n(c2=O)Cc2c-1nc1cc3c(cc1c2-c1cc(OC)c(OC)c(OC)c1)OCO3` were 200 nM, 39.6 nM, 738 nM, 140 nM and 101 nM.

By IC50 is commonly meant the concentration at which inhibition is half-maximal. A higher IC50 goes with lower potency.
